{"source": "paper PMC3726613", "about": "“Bacterial Cyclic AMP-Phosphodiesterase Activity Coordinates Biofilm Formation” (PLoS ONE, 2013)", "molecular_target": "T1, CpdS (SMA3506), CpdS-His8 (Serratia ureilytica, UniProt A0A9X9G1H8)", "T1 construct": "gene cpdA", "T1 sequence (A0A9X9G1H8 entry or part of it)": "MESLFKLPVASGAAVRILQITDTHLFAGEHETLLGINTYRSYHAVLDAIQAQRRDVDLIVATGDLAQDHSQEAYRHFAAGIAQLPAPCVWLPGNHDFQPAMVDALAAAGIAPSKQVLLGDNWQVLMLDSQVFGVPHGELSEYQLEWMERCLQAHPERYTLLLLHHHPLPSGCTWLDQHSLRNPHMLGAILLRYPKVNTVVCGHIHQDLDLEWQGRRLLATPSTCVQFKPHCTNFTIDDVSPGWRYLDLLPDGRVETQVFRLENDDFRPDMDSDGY", "assay": "bis-pNPP hydrolysis assay", "type": "biochemical", "details": "read-out: 50% reduction in the activity", "data": [{"smiles": "CC(C)Cn1c(=O)n(C)c(=O)c2[nH]cnc21", "note": "[IBMX]", "values": [{"measurement": "IC50", "result": 4.8, "unit": "mM"}]}]}
